From PMC3894558, “Chemical signatures and new drug targets for gametocytocidal drug development” (Scientific Reports, 2014)
Structures can show the parent of a compound that is named as a salt. Where two headings read alike, the source gives them in different places.

How the values were obtained:
[1] = system: P. falciparum 3D7 gametocytes; test: alamarBlue gametocyte viability assay, strain 3D7; type: cell-based, Plasmodium falciparum; conditions: for Max Resp: DMSO set at 0%, 100 nM epoxomicin set at -100%
[2] = system: P. falciparum Dd2 gametocytes; test: alamarBlue gametocyte viability assay, strain Dd2; type: cell-based, Plasmodium falciparum
Description: (§1) Briefly, gametocyte cultures were set up at 0.1% parasitemia and on days 9–10 treated with 50 mM N-acetylglucosamine (NAG) to block further asexual growth. Stage III–V gametocytes were isolated by Percoll density gradient centrifugation on day 12 and returned to culture for 24 hrs before being used in the assay[9].
(§2) Briefly, 2.5 μl/well incomplete medium was dispensed into each well of 1,536-well plates using the Multidrop Combi followed by 23 nl compound transferring using the NX-TR Pintool (WAKO Scientific Solutions, San Diego, CA). Then, 2.5 μl/well of gametocytes was dispensed with a seeding density of 20,000 cells/well using the Multidrop Combi. The assay plates were incubated for 72 hrs at 37°C with 5% CO2.

[3] = system: P. falciparum HB3 gametocytes; test: alamarBlue gametocyte viability assay, strain HB3; type: cell-based, Plasmodium falciparum
Description: as §1, §2

HepG2 cells = test: cells; conditions: Homo sapiens; for Emax: HepG2, read-out: % Max response; for IC50: HepG2, read-out: IC50 in HepG2 cells
Excerpt: Growth medium was made with Dulbecco's Modified Eagle Medium with 10% fetal bovine serum (FBS).

[4] = Malaria Box, stages III-V 3D7 gametocytes
[5] = Malaria Box, stages III-V 3D7 gametocytes, 11 concentrations, 1:3 dilution, read-out: IC50
[6] = Plasmodium falciparum, DD2, strain profiling, 11 concentrations, 1:3 dilution, three times, read-out: Dd2-gametocytes IC50
[7] = Plasmodium falciparum, HB3, strain profiling, 11 concentrations, 1:3 dilution, three times, read-out: HB3-gametocytes IC50
[8] = Plasmodium falciparum, 3D7, strain profiling, 11 concentrations, 1:3 dilution, three times, read-out: 3D7-gametocytes IC50
[9] = Plasmodium falciparum, 3D7, P. falciparum 3D7 gametocytes, mean of at least 3 independent experiments, read-out: Gametocyte IC50
[10] = Plasmodium falciparum, DD2, read-out: Dd2-gametocytes IC50
[11] = Plasmodium falciparum, HB3, read-out: HB3-gametocytes IC50
[12] = strain profiling, 11 concentrations, 1:3 dilution, three times, read-out: Dd2-gametocytes IC50
[13] = strain profiling, 11 concentrations, 1:3 dilution, three times, read-out: HB3-gametocytes IC50
[14] = strain profiling, 11 concentrations, 1:3 dilution, three times, read-out: 3D7-gametocytes IC50

`COC(=O)c1ccc(Cl)c2c1C1C=CCC1C(c1cccc3ccccc13)N2` (stereo not shown) [MMV667489] was tested, and the “Max Resp” value ([1]; Malaria Box) was 1%, the “Curve Class” value [1, 4] was 4 and the IC50 ([1]; Malaria Box, stages III-V 3D7 gametocytes, 11 concentrations, 1:3 dilution) was “Inactive”.
In the case of `COc1ccc(C2c3ccc4ccccc4c3Oc3ncn(CCCn4ccnc4)c(=N)c32)cc1OC` (stereo not shown) [MMV667490], the “Max Resp” value ([1]; Malaria Box) is reported as -79%, the “Curve Class” value [1, 4] is reported as -1.1 and the IC50 [1, 5] is reported as 4.18 µM.
With `COc1ccc(C2c3ccc4ccccc4c3Oc3ncn(CCCN(C)C)c(=N)c32)cc1` (stereo not shown) [MMV667491] the “Max Resp” value ([1]; Malaria Box) was -95%, the “Curve Class” value [1, 4] was -1.1 and the IC50 [1, 5] was 2.64 µM.
In the case of `CN(N=O)C1=C(NC2CCCCC2)C(=O)c2ccccc2C1=O` [MMV667492], the “Max Resp” value ([1]; Malaria Box) is reported as -59%, the “Curve Class” value [1, 4] is reported as -1.2 and the IC50 [1, 5] is reported as 2.35 µM.
With `CO[C@@H]1[C@@H](OC)[C@H](C)[C@@](O)(CC(=O)O)O[C@H]1[C@H](C)[C@H]1O[C@@]2(CC[C@@](C)([C@H]3CC[C@@](C)([C@@H]4O[C@@H]([C@H]5O[C@](C)(O)[C@H](C)C[C@@H]5C)C[C@@H]4O[C@@H]4C[C@H](OC)[C@@H](OC)[C@H](C)O4)O3)O2)C[C@H](O)[C@H]1C` [Maduramicin ammonium] the IC50 [2, 6] was 0.037 µM, the IC50 [3, 7] was 0.012 µM and the IC50 [1, 8] was 0.024 µM.
Compound `CO[C@@H]1[C@@H](OC)[C@H](C)[C@@](O)(CC(=O)O)O[C@H]1[C@H](C)[C@H]1O[C@@]2(CC[C@@](C)([C@H]3CC[C@@](C)([C@@H]4O[C@@H]([C@H]5O[C@](C)(O)[C@H](C)C[C@@H]5C)C[C@@H]4O[C@@H]4C[C@H](OC)[C@@H](OC)[C@H](C)O4)O3)O2)C[C@H](O)[C@H]1C` [Maduramicin] has an Emax (HepG2 cells) of -42%, an IC50 (HepG2 cells) of 37.2 µM and an IC50 [1, 9] of 0.047 µM.
In the case of `OC(c1cc(C(F)(F)F)nc2c(C(F)(F)F)cccc12)C1CCCCN1` (stereo not shown) [Mefloquine hydrochloride], the IC50 [2, 6] is reported as 0.053 µM, the IC50 [3, 7] is reported as 0.059 µM and the IC50 [1, 8] is reported as 0.074 µM.
`OC(c1cc(C(F)(F)F)nc2c(C(F)(F)F)cccc12)C1CCCCN1` (stereo not shown) [Mefloquine] showed an Emax (HepG2 cells) of -97%, an IC50 (HepG2 cells) of 29.6 µM and an IC50 [1, 9] of 0.833 µM.
Compound `CCNC(=O)c1noc(-c2cc(C(C)C)c(O)cc2O)c1-c1ccc(CN2CCOCC2)cc1` [NVP-AUY922] has an IC50 [2, 6] of 0.047 µM, an IC50 [3, 7] of 0.042 µM and an Emax (HepG2 cells) of -88%. The IC50 (HepG2 cells) was 0.148 µM and the IC50 [1, 9] was 0.047 µM.
For `CC[C@@H](C(=O)O)[C@@H]1O[C@@H]([C@@H](C)[C@H](O)[C@H](C)C(=O)[C@H](CC)[C@H]2O[C@]3(C=C[C@@H](O)[C@]4(CC[C@@](C)([C@H]5CC[C@](O)(CC)[C@H](C)O5)O4)O3)[C@H](C)C[C@@H]2C)[C@@H](C)C[C@@H]1C` [Narasin], the IC50 [2, 10] was 0.076 µM, the IC50 [3, 7] was 0.136 µM and the Emax (HepG2 cells) was -98%. It also gave an IC50 (HepG2 cells) of 27 µM and an IC50 [1, 9] of 0.05 µM.
`CCN(CC)Cc1nccn1-c1ccc([N+](=O)[O-])cc1C(=O)c1ccccc1Cl` [Nizofenone] gave an IC50 [2, 10] of 16.6 µM, an IC50 [3, 11] of 14.8 µM and an IC50 [1, 8] of 23.5 µM.
With `COC(=O)C[C@](O)(CCCC(C)(C)O)C(=O)O[C@@H]1C(OC)=C[C@]23CCCN2CCc2cc4c(cc2[C@H]13)OCO4` [Omacetaxine mepesuccinate] the IC50 [2, 6] was 0.037 µM, the IC50 [3, 7] was 0.017 µM and the IC50 [1, 8] was 0.059 µM.
`Cc1[nH]c2ccccc2c1CCNCc1ccc(/C=C/C(=O)NO)cc1` [Panobinostat] was tested, and the IC50 [2, 6] was 0.118 µM, the IC50 [3, 7] was 0.148 µM and the Emax (HepG2 cells) was -74%. It also gave an IC50 (HepG2 cells) of 0.372 µM and an IC50 [1, 9] of 0.935 µM.
Compound `COc1cc(NC(C)CCCN)c2ncccc2c1` (stereo not shown) [Primaquine] has an IC50 ([2]; Plasmodium falciparum, DD2, read-out: Dd2-gametocytes IC50, strain profiling, 11 concentrations, 1:3 dilution, three times) of 1.08 µM, an IC50 ([2]; read-out: Dd2-gametocytes IC50, strain profiling, 11 concentrations, 1:3 dilution, three times, listed as PQ) of 1.08 µM and an IC50 ([3]; read-out: HB3-gametocytes IC50, strain profiling, 11 concentrations, 1:3 dilution, three times, listed as PQ) of 0.68 µM. For the same compound, the IC50 (HepG2 cells) was 17.8 µM.
`COc1ccc(C[C@H](N)C(=O)N[C@H]2[C@@H](O)[C@H](n3cnc4c(N(C)C)ncnc43)O[C@@H]2CO)cc1` [Puromycin] was tested, and the IC50 [2, 6] was 2.64 µM, the IC50 [3, 7] was 1.48 µM and the Emax (HepG2 cells) was -71%. For the same compound, the IC50 (HepG2 cells) was 11.8 µM and the IC50 [1, 9] was 1.05 µM.
Compound `COc1ccc2nc3cc(Cl)ccc3c(Nc3cc(CN4CCCC4)c(O)c(CN4CCCC4)c3)c2n1` [Pyronaridine] has an IC50 [2, 6] of 6.62 µM, an IC50 [3, 7] of 2.64 µM and an IC50 [1, 8] of 1.87 µM.
In the case of `C/C=C1\NC(=O)[C@H]2CSSCC/C=C/[C@H](CC(=O)N[C@H](C(C)C)C(=O)N2)OC(=O)[C@H](C(C)C)NC1=O` [Romidepsin], the IC50 [2, 10] is reported as 0.187 µM, the IC50 [3, 11] is reported as 0.148 µM and the Emax (HepG2 cells) is reported as -98%. The IC50 (HepG2 cells) was 0.074 µM, the IC50 [1, 8] was 0.264 µM and the IC50 ([1]; Plasmodium falciparum, P. falciparum 3D7 gametocytes, mean of at least 3 independent experiments, read-out: Gametocyte IC50) was 0.637 µM.
With `Cl.Cl.Cl.Cl.Cl.Cl.N.N.N.N.N.N.N.N.N.N.N.N.N.N.[O-2].[O-2].[Ru+3].[Ru+3].[Ru+4]` [Ruthenium red] the IC50 [2, 12] was 0.526 µM, the IC50 [3, 13] was 0.264 µM and the IC50 [1, 14] was 0.935 µM.
In the case of `CCN(CC)C(=S)SSC(=S)N(CC)CC` [Tetraethylthiuram disulfide], the IC50 [2, 12] is reported as 0.296 µM, the IC50 [3, 13] is reported as 0.148 µM and the IC50 [1, 14] is reported as 0.096 µM.
`CCC(=O)N1CCN(c2ccc(-n3c(=O)ccc4cnc5ccc(-c6ccc(N)nc6)cc5c43)cc2C(F)(F)F)CC1` [WWH030] showed an IC50 ([1]; Plasmodium falciparum, 3D7, 3D7 gametocytes, stages III-V, high throughput viability assay, read-out: IC50 against gametocytes) of 0.009 µM.
Salinomycin monosodium was tested, and the IC50 [2, 12] was 0.296 µM, the IC50 [3, 13] was 0.469 µM and the IC50 [1, 14] was 0.194 µM.
